According to patent US7531570B2, “Treatment of diseases using ICE inhibitors” (Vertex Pharmaceuticals Incorporated, priority 2004, dated 2009):

Legend:
[1] = system: LPS-stimulated IL-18 release from PBMCs of FCAS patients; experiment: LPS-stimulated IL-18 release from PBMCs of patients with FCAS; assay type: cell-based, human
Excerpt: (§1) Inhibition by Compound 7 of LPS-Stimulated IL-1β and IL-18 Release from PBMCs of Patients with FCAS Compared with Healthy Controls.
(§2) FCAS patients from 3 families were studied along with healthy controls. The FCAS patients expressed 3 different CIAS1 gene mutations. […] (Neven B, Callebaut I, Prieur A M, Feldmann J, Bodemer C, Lepore L, Derfalvi B, Benjaponpitak S, Vesely R, Sauvain M J, Oertle S, Allen R, Morgan G, Borkhardt A, Hill C, Gardner-Medwin J. Fischer A, de Saint Basile G. Molecular basis of the spectral expression of CIAS1 mutations associated with phagocytic cell-mediated autoinflammatory disorders CINCA/NOMID, MWS, and FCU. Blood. 2004; 103(7): 2809-15).
(§3) Whole blood samples were collected from patients with FCAS and from healthy volunteer controls and cultured in vitro. The production of IL-1β was evaluated under normal, unstimulated conditions and in the presence of lipopolysaccharide at a range of concentrations from 10-10,000 ng/mL. Compound 7 was added to the cultures at concentrations of 30-30,000 nM to observe its ability to inhibit the production of IL-1β and IL-18 by cells from patients with FCAS or healthy volunteers. FIG. 1 illustrates the results of these experiments.
FIG. 1C illustrates the release of IL-18 by PBMCs from FCAS patients or control subjects after 24 hrs exposure to LPS in the absence or presence of 10 μM compound 7. […]

[2] = system: LPS-stimulated IL-1β release from PBMCs from MWS patients; experiment: LPS-stimulated IL-1β release from PBMCs from MWS patients; assay type: cell-based, human; settings: PBMCs from 4 MWS patients, 10 ng/ml LPS, compound 0.03-10 μM, 24 hour, ELISA, FIG. 2
Procedure: Inhibition by Compound 7 of LPS-Stimulated IL-1β Release from PBMCs from 4 MWS Patients Incubated with 10 ng/ml LPS in the Presence of Increasing Concentrations of Compound 7 (0.03-10 μM) for 24 Hour.
Whole blood samples were collected from patients with MWS and cultured in vitro. The production of IL-1β was evaluated under normal, unstimulated conditions and in the presence of lipopolysaccharide at a range of concentrations from 10-10,000 ng/mL. Compound 7 was added to the cultures at concentrations of 30-10,000 nM to observe its ability to inhibit the production of IL-1β by cells from patients with MWS or healthy volunteers. FIG. 2 illustrates the results of these experiments.
More specifically, in FIG. 2, IL-1β in cell culture media was measured by ELISA and the results for each subject were normalized to the level of IL-1β release in the absence of compound 7. Results were reported individually for each of the 4 MWS patients.

MWS patients = experiment: Open-label clinical trial: clinical response of 4 MWS patients to compound 7; assay type: in vivo, human
Procedure: Clinical Response of 4 MWS Patients to 900 mg Compound 7 Administered Orally Three Times Daily for 14 Days.
Four patients with MWS were enrolled into an open-label clinical trial to receive treatment with compound 7.
Compound 7 was administered orally at a dose of 900 mg 3 times daily for 14 days.
Specifically, in FIG. 3A, serum interleukin-18 (IL-18) was measured before (day −9 and day 0 (first point)), during (day 0 (second point), day 7 and day 14, (first point)) and after (day 14 (second point) and day 21) treatment with compound 7. On average, serum IL-18 levels were reduced by 55% at day 14. Data were reported in mean±SEM from 4 patients. Baseline levels of serum IL-18 were 170-370 pg /mL and were only slightly elevated relative to those typically observed in healthy control subjects.
In FIG. 3B, Serum amyloid A (SAA) and C-reactive protein (CRP) were measured before, during and after treatment with compound 7, and the amounts of SAA and CRP were reduced on average by 75% and 65%, respectively. Baseline levels of SAA were 150-650 mg/L and of CRP were 20-90 mg/L, both considerably elevated relative to healthy control subjects.
FIG. 3C illustrates that the self-reported patient total symptom scores were reduced on average by 60% during treatment. Individual symptoms (rash, fever/chills, arthralgia/myalgia, eye discomfort, fatigue) were rated daily by patients to be absent (O), minimal (1), mild (2), moderate (3) or severe (4) and the total score was calculated as the sum of individual symptom scores (range 0-20). Patients were experiencing mild-moderate symptoms at the beginning of treatment (scores 10-15), which were reduced to a minimal level (scores about 5) during treatment with compound 7.

[3] = system: LPS-stimulated IL-1β release from PBMCs of FCAS patients; experiment: LPS-stimulated IL-1β release from PBMCs of patients with FCAS; assay type: cell-based, human
Excerpt: as §1, §2, §3
(§4) More specifically, in FIG. 1A, PBMCs from FCAS patients and normal controls were incubated with 10 ng/ml LPS in the presence of increasing concentrations of compound 7 (0.03-30 μM) for 24 hours. IL-1β in cell culture media was measured by ELISA and the results for each subject were normalized to the level of IL-1β release in the absence of compound 7. Results were reported in mean±SEM, for 3 FCAS patients and 5 control patients. LPS-stimulated IL-1β was inhibited by compound 7 with potency very similar to that of PBMCs from normal subjects (IC50 value˜1 μM).
FIG. 1B illustrates the release of IL-1β by PBMCs from FCAS patients or control subjects after exposure to LPS for 24 hours in the absence or presence of 10 μM compound 7. Results were reported in mean±SEM for 7 FCAS patients and 5 control patients. […]

[4] = system: LPS-stimulated IL-1β release from PBMCs from normal subjects; experiment: LPS-stimulated IL-1β release from PBMCs of healthy controls; assay type: cell-based; settings: Homo sapiens, PBMC, 10 ng/ml LPS, 24 hours, compound 0.03-30 μM, ELISA, FIG. 1A, read-out: IC50 for inhibition of LPS-stimulated IL-1β release
Procedure: as §1, §3, §4

patients with MWS = settings: cited from earlier work
[5] = 900 mg orally three times daily for 14 days, MWS patients, FIG. 3B

Molecule	LPS-stimulated IL-18 release in presence of compound ([1]; 10 μM compound, LPS 24 hrs, PBMCs from 3 FCAS patients vs 3 controls, FIG. 1C)	Potency of blocking IL-18 secretion, FCAS versus control subjects ([1]; LPS-stimulated cells, FIG. 1)	Inhibition of LPS-stimulated IL-1β release, potency versus normal subjects [2]	Reduction of C-reactive protein (CRP) (average) (MWS patients; [5])	Reduction of serum amyloid A (SAA) (average) (MWS patients; [5])	Reduction of serum interleukin-18 (average) (MWS patients; 900 mg orally three times daily, at day 14, 4 MWS patients, FIG. 3A)	Reduction of self-reported patient total symptom scores (average) (MWS patients; 900 mg orally three times daily, during treatment, MWS patients, FIG. 3C)	Tolerability (MWS patients; four MWS patients, 14-day treatment period, 900 mg 3 times daily orally)	Total symptom score during treatment (MWS patients; sum of 5 symptom scores, range 0-20, scores 10-15 at beginning of treatment)	LPS-stimulated IL-1β release in presence of compound ([3]; 10 μM compound, LPS 24 hours, PBMCs from 7 FCAS patients vs 5 controls, FIG. 1B)	IC50 ([3]; Homo sapiens, PBMC, PBMCs from FCAS patients, 10 ng/ml LPS, 24 hours, compound 0.03-30 μM, ELISA, FIG. 1A, read-out: IC50 for inhibition of LPS-stimulated IL-1β release)	Potency of blocking IL-1β secretion, FCAS versus control subjects ([3]; LPS-stimulated cells, FIG. 1)	IC50 [4]	Clinical inflammatory symptoms in patients with MWS (patients with MWS; daily injection)	Serum amyloid A in patients with MWS (patients with MWS; daily injection)	Urinary excretion of amyloid in patients with MWS (patients with MWS; daily injection)	Effectiveness in treating Muckle-Wells syndrome, Familial Cold Autoinflammatory Syndrome, Hyper-IgD syndrome and systemic onset Juvenile idiopathic Arthritis (patients with MWS; human, in vivo)
CCO[C@@H]1OC(=O)C[C@@H]1NC(=O)[C@@H]1CCCN1C(=O)[C@@H](NC(=O)c1ccc(N)c(Cl)c1)C(C)(C)C [Compound 7]	inhibited	equal potency	potency similar to that of PBMCs from normal subjects	65%	75%	55%	60%	well tolerated	about 5	inhibited	~1000 nM	equal potency	~1000 nM	–	–	–	–
anakinra: recombinant human interleukin-1 receptor antagonist (rhuIL-1Ra, anakinra)	–	–	–	–	–	–	–	–	–	–	–	–	–	dramatic, rapid and sustained reduction	reduction of serum amyloid A	reduction	effective
